Measurements as given in US4233303A, “Xanthine derivatives” (priority 1977, dated 1980).
“Also recorded” adds a separate entry of the source. Like-named read-outs stand apart in the source and are kept apart here.

Legend:
[1] = system: actively sensitized rat (anaphylactic bronchospasm); assay: Active lung anaphylaxis in the rat (increase in intratracheal pressure after ovalbumin); assay type: in vivo, Sprague Dawley (printed "Spargue Dawley"); conditions: for Increase in intratracheal pressure (+ΔP): 1 min before ovalbumin, mean ± S.E.M.; for ED50: Rattus norvegicus, iv; for doses needed for protective effect / protective effect against anaphylactic bronchospasm (words, conclusion): actively sensitized rat; for protective effect against anaphylactic bronchospasm (words, conclusion): theophylline 0.010-2.5 mg/kg, disodiumcromoglicate 0.1-5.0 mg/kg; for concentrations showing inhibition of the anaphylactic bronchospasm / effect on the increase of the intratracheal pressure / maximum inhibition of the anaphylactic bronchospasm: 1 minute before ovalbumin
Protocol: The antianaphylactic effect was tested on actively sensitized laboratory animals.
The active sensitization of the animals was achieved by injecting ovalbumin, a protein. This administration makes the animals hypersensitive to subsequent challenge of ovalbumin with bronchoconstriction as a consequence. The antianaphylactic effect of the test compounds was tested in vivo by exposing the actively sensitized animals to ovalbumin and measuring the protective effect of test substance on the intratracheal pressure.
Rats, Spargue Dawley, 250 g, were sensibilized by 1.0 mg ovalbumin (Sigma) and 200 mg Al(OH)3 gel suspended in 1.0 ml saline. This suspension was administered subcutaneously at 2 sites (0.5 ml/site) on the abdominal side. This procedure was done with the animals lightly anesthetized by Mebumal. 18-26 days later the animals were used in the provocation experiments
The animal was anesthetized by i.p. injection of Mebumal, 50 mg/kg i.p. The trachea was cannulated and the animals was ventilated by a pump (Braun). The frequency of respiration was about 80 beats/min. The intratracheal pressure was measured by a Statham pressure transducer (P23AC). The normal pressure variations were 0- cm H2 O.
To inhibit spontaneous respiration there was need for Curare 0.8 mg/kg i.v. Alongside with the respiratory measurements the heart rate and arterial blood pressure was measured by a Statham pressure transducer connected with a. carotis. The blood pressure, pulse rate and intratracheal pressure were registered by means of a Grass polygraph.
Bronochoconstriction was induced by 5HT, 4-5 injections in v. jugularis of a standard dose. After that a single dose of ovalbumin, 5 mg, was administered. Test compound was administered 1 min before the challenging dose of ovalbumin. Because of desensitization towards the antigen (ovalbumin) this could only be administered once in each animal.
Calculation of anaphylactic bronchoconstriction
The maximum increase of the intratracheal pressure caused by ovalbumin was measured and this was expressed as the percentage increase of the intratracheal pressure. Comparisons were made between a group of control animals not treated with test compound and groups of animals treated with different doses of test compound.
They were initially dissolved in 0.8 ml NaOH (0.5 M) and 9.2 ml saline. This stock solution of compound, 10 mg/ml, was diluted further with saline if necessary. […] The compound was dissolved in saline.

[2] = system: basophil leucocytes and isolated lung tissue; conditions: cited from earlier work
[3] = read-out: ED 50 values (50% protection against the anaphylactic bronchospasm), i.v., extrapolated
[4] = read-out: Extrapolated intravenous dose for 50% protection (ED 50), i.v., Table VIII

Question: Which “Increase in intratracheal pressure (+ΔP)” value ([1]; 0.010 mg/kg i.v.) does the source give for `Cc1nc2c([nH]1)c(=O)n(C)c(=O)n2-c1ccccc1` [D 4026, 3,7-dihydro-1,8-dimethyl-3-phenyl-1H-purine-2,6-dione] here?
Answer: The value was 33 ± 6%.

Question: What about the “Increase in intratracheal pressure (+ΔP)” value ([1]; 0.100 mg/kg i.v.) of the same molecule?
Answer: Its value is 7 ± 2%.

Question: And the “Increase in intratracheal pressure (+ΔP)” value ([1]; 0.500 mg/kg i.v.)?
Answer: Its value is 9 ± 5%.

Question: And the ED50 [1, 3]?
Answer: The ED50 was < 0.1 mg/kg.

Question: And the ED50 [1, 4]?
Answer: The ED50 was 0.016 mg/kg.

Question: And the “doses needed for protective effect” value ([1]; i.v.)?
Answer: Its value is 0.01 to 1.0 mg/kg.

Question: What about the “protective effect against anaphylactic bronchospasm (words, conclusion)” value (“protective effect … (words, conclusion)” below) [1] of the same molecule?
Answer: The value was “show protective effect”.

Question: And the “concentrations showing inhibition of the anaphylactic bronchospasm” value (shortened to “concentrations showing inhibition”) ([1]; i.v.)?
Answer: The value was 0.01 to 0.10 mg/kg.

Question: And the “effect on the increase of the intratracheal pressure” value (“effect on the increase” for short) ([1]; i.v.)?
Answer: The value was “diminished the increase of the intratracheal pressure”.

Question: And the “maximum inhibition of the anaphylactic bronchospasm” value (shortened to “maximum inhibition”) ([1]; i.v.)?
Answer: Its value is “about 87%”.

Question: What does the source list for `Cc1nc2c([nH]1)c(=O)n(C)c(=O)n2CC(C)O` (stereo not drawn) [D 4086, 3,7-dihydro-1,8-dimethyl-3-(2-hydroxypropyl)-1H-purine-2,6-dione]?
Answer: Increase in intratracheal pressure (+ΔP) ([1]; 0.100 mg/kg i.v.): 26 ± 6%; Increase in intratracheal pressure (+ΔP) ([1]; 0.250 mg/kg i.v.): 14 ± 3%; Increase in intratracheal pressure (+ΔP) ([1]; 0.500 mg/kg i.v.): 2 ± 1%; ED50 [1, 3]: 0.1 to 0.27 mg/kg; ED50 [1, 4]: 0.12 mg/kg; doses needed for protective effect ([1]; i.v.): 0.01 to 1.0 mg/kg; protective effect against anaphylactic bronchospasm (words, conclusion) [1]: show protective effect; effect on the increase of the intratracheal pressure ([1]; i.v.): diminished the increase of the intratracheal pressure

Question: Which “Increase in intratracheal pressure (+ΔP)” value ([1]; 0.010 mg/kg i.v.) does the source give for `CCCn1c(=O)c2[nH]c(C)nc2n(CC(C)O)c1=O` (stereo not drawn) [D 4122, 3,7-dihydro-3-(2-hydroxypropyl)-8-methyl-1-propyl-1H-purine-2,6-dione] here?
Answer: The value was 34 ± 4%.

Question: What about the “Increase in intratracheal pressure (+ΔP)” value ([1]; 0.100 mg/kg i.v.) of the same molecule?
Answer: Its value is 23 ± 5%.

Question: What about the “Increase in intratracheal pressure (+ΔP)” value ([1]; 1.00 mg/kg i.v.) of the same molecule?
Answer: Its value is 18 ± 4%.

Question: And the ED50 [1, 3]?
Answer: Its ED50 is < 0.1 mg/kg.

Question: And the ED50 [1, 4]?
Answer: The ED50 was 0.01 mg/kg.

Question: And the “doses needed for protective effect” value ([1]; i.v.)?
Answer: Its value is 0.01 to 1.0 mg/kg.

Question: What about the “protective effect … (words, conclusion)” value [1] of the same molecule?
Answer: Its value is “show protective effect”.

Question: And the “concentrations showing inhibition” value ([1]; i.v.)?
Answer: Its value is 0.01 to 1.00 mg/kg.

Question: What about the “effect on the increase” value ([1]; i.v.) of the same molecule?
Answer: Its value is “diminished the increase of the intratracheal pressure”.

Question: What about the “maximum inhibition” value ([1]; i.v.) of the same molecule?
Answer: Its value is 79%.

Question: Which results are given for `Cc1nc2c([nH]1)c(=O)n(C)c(=O)n2C1CCCC1` [D 4136, 3-cyclopentyl-3,7-dihydro-1,8-dimethyl-1H-purine-2,6-dione]?
Answer: Increase in intratracheal pressure (+ΔP) ([1]; 0.025 mg/kg i.v.): 36 ± 4%; Increase in intratracheal pressure (+ΔP) ([1]; 0.100 mg/kg i.v.): 55%; Increase in intratracheal pressure (+ΔP) ([1]; 1.00 mg/kg i.v.): 27 ± 4%; ED50 [1, 4]: 0.13 mg/kg; doses needed for protective effect ([1]; i.v.): 0.01 to 1.0 mg/kg; protective effect against anaphylactic bronchospasm (words, conclusion) [1]: show protective effect; effect on the increase of the intratracheal pressure ([1]; i.v.): diminished the increase of the intratracheal pressure

Question: For `CCn1c(=O)c2[nH]c(C)nc2n(CC2CCCCC2)c1=O` [D 4139, 3,7-dihydro-1-ethyl-8-methyl-3-cyclohexylmethyl-1H-purine-2,6-dione], which “Increase in intratracheal pressure (+ΔP)” value ([1]; 0.010 mg/kg i.v.) is on record?
Answer: Its value is 74 ± 22%.

Question: What about the “Increase in intratracheal pressure (+ΔP)” value ([1]; 0.05 mg/kg i.v.) of the same molecule?
Answer: The value was 50 ± 26%.

Question: And the “Increase in intratracheal pressure (+ΔP)” value ([1]; 0.100 mg/kg i.v.)?
Answer: Its value is 35 ± 9%.

Question: What about the ED50 [1, 3] of the same molecule?
Answer: Its ED50 is < 0.1 mg/kg.

Question: What about the ED50 [1, 4] of the same molecule?
Answer: Its ED50 is 0.04 mg/kg.

Question: What about the “doses needed for protective effect” value ([1]; i.v.) of the same molecule?
Answer: Its value is 0.01 to 1.0 mg/kg.

Question: And the “protective effect … (words, conclusion)” value [1]?
Answer: Its value is “show protective effect”.

Question: And the “concentrations showing inhibition” value ([1]; i.v.)?
Answer: Its value is 0.01 to 0.10 mg/kg.

Question: And the “effect on the increase” value ([1]; i.v.)?
Answer: The value was “diminished the increase of the intratracheal pressure”.

Question: And the “maximum inhibition” value ([1]; i.v.)?
Answer: The value was 68%.

Question: And the “ED 50 values (50% protection against the anaphylactic bronchospasm)” value ([1]; i.v., extrapolated)?
Answer: Its value is 0.10 to 0.27 mg/kg.

Question: With `O=C(O)c1cc(=O)c2c(OCC(O)COc3cccc4oc(C(=O)O)cc(=O)c34)cccc2o1` [disodiumcromoglicate, reference compound] as the molecule, how does the “Increase in intratracheal pressure (+ΔP)” value ([1]; 0.100 mg/kg i.v.) read?
Answer: Its value is 46 ± 7%.

Question: What about the “Increase in intratracheal pressure (+ΔP)” value ([1]; 1.00 mg/kg i.v.) of the same molecule?
Answer: The value was 22 ± 8%.

Question: And the “Increase in intratracheal pressure (+ΔP)” value ([1]; 5.0 mg/kg i.v.)?
Answer: Its value is 46 ± 6%.

Question: What about the “ED 50 result in words (dose-response shape)” value ([1]; i.v.) of the same molecule?
Answer: Its value is “bell shaped curves which made it impossible to calculate ED 50 values; also recorded: bell-shaped curve”.

Question: For `Cn1c(=O)c2[nH]cnc2n(C)c1=O` [theophylline], which “inhibition of the anaphylactic release of histamine” value [2] is on record?
Answer: The value was “capable of inhibiting the anaphylactic release of histamine”.
